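96-well plates; 48 h exposure; 5 concentrations. Endpoints by linear interpolation between flanking doses. Not reached: highest tested concentration assigned. GI50 = concentration required for 50% inhibition of growth. TGI: total growth inhibition.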
Assays:
Assay in all cases: NCI anticancer screen, dose series, 48 h
SW-620 colon = system: SW-620 colon
SN12C renal = system: SN12C renal
U251 CNS = system: U251 CNS
PC-3 prostate = system: PC-3 prostate
A498 renal = system: A498 renal
DU-145 prostate = system: DU-145 prostate
MDA-MB-231 breast = system: MDA-MB-231 breast
HS 578T breast = system: HS 578T breast
SR leukemia = system: SR leukemia
HCT-15 colon = system: HCT-15 colon
K-562 leukemia = system: K-562 leukemia
COLO 205 colon = system: COLO 205 colon
SK-MEL-28 melanoma = system: SK-MEL-28 melanoma
MALME-3M melanoma = system: MALME-3M melanoma
BT-549 breast = system: BT-549 breast
OVCAR-5 ovarian = system: OVCAR-5 ovarian
SNB-19 CNS = system: SNB-19 CNS
TK-10 renal = system: TK-10 renal
SK-MEL-5 melanoma = system: SK-MEL-5 melanoma
ACHN renal = system: ACHN renal
RPMI-8226 leukemia = system: RPMI-8226 leukemia
HOP-62 NSCLC = system: HOP-62 NSCLC
NCI-H226 lung = system: NCI-H226 lung
SK-OV-3 ovarian = system: SK-OV-3 ovarian
NCI/ADR-RES ovarian = system: NCI/ADR-RES ovarian
NCI-H23 lung = system: NCI-H23 lung
KM12 colon = system: KM12 colon
NCI-H460 lung = system: NCI-H460 lung
OVCAR-4 ovarian = system: OVCAR-4 ovarian
SF-268 CNS = system: SF-268 CNS
LOX IMVI melanoma = system: LOX IMVI melanoma
SF-539 CNS = system: SF-539 CNS
SNB-75 CNS = system: SNB-75 CNS
HOP-92 NSCLC = system: HOP-92 NSCLC
HCT-116 colon = system: HCT-116 colon
MCF7 breast = system: MCF7 breast
HL-60(TB) leukemia = system: HL-60(TB) leukemia
IGROV1 ovarian = system: IGROV1 ovarian
HCC-2998 colon = system: HCC-2998 colon
SK-MEL-2 melanoma = system: SK-MEL-2 melanoma
786-0 renal = system: 786-0 renal
MOLT-4 leukemia = system: MOLT-4 leukemia
M14 melanoma = system: M14 melanoma
SF-295 CNS = system: SF-295 CNS
OVCAR-8 ovarian = system: OVCAR-8 ovarian
UACC-62 melanoma = system: UACC-62 melanoma
RXF 393 renal = system: RXF 393 renal
MDA-MB-435 = system: MDA-MB-435
T-47D breast = system: T-47D breast
CAKI-1 renal = system: CAKI-1 renal
UO-31 renal = system: UO-31 renal
OVCAR-3 ovarian = system: OVCAR-3 ovarian
HT29 colon = system: HT29 colon
NCI-H522 lung = system: NCI-H522 lung
CCRF-CEM leukemia = system: CCRF-CEM leukemia
UACC-257 melanoma = system: UACC-257 melanoma

## Cc1cc(Nc2ccc(C)c(Cl)c2)n2nc(C(F)(F)F)nc2n1
SW-620 colon
  GI50: 30.2 µM
  TGI: > 100 µM
SN12C renal
  GI50: 18.8 µM
  TGI: 52.9 µM
U251 CNS
  GI50: 23.5 µM
  TGI: > 100 µM
PC-3 prostate
  GI50: 22 µM
  TGI: > 100 µM
A498 renal
  GI50: 8.61 µM
  TGI: 53.5 µM
DU-145 prostate
  GI50: 17.6 µM
  TGI: 38.9 µM
MDA-MB-231 breast
  GI50: 23.7 µM
  TGI: > 100 µM
HS 578T breast
  GI50: 22.6 µM
  TGI: 77.4 µM
SR leukemia
  GI50: 18.4 µM
  TGI: 57 µM
HCT-15 colon
  GI50: 23.6 µM
  TGI: > 100 µM
K-562 leukemia
  GI50: 16 µM
  TGI: > 100 µM
COLO 205 colon
  GI50: 23.5 µM
  TGI: 70.1 µM
SK-MEL-28 melanoma
  GI50: 29.8 µM
  TGI: > 100 µM
MALME-3M melanoma
  GI50: 30.4 µM
  TGI: 97.9 µM
BT-549 breast
  GI50: 22.9 µM
  TGI: 57.4 µM
OVCAR-5 ovarian
  GI50: 38 µM
  TGI: > 100 µM
SNB-19 CNS
  GI50: 29.4 µM
  TGI: > 100 µM
TK-10 renal
  GI50: 31.2 µM
  TGI: 84.8 µM
SK-MEL-5 melanoma
  GI50: 14.3 µM
  TGI: 27.9 µM
ACHN renal
  GI50: 16.3 µM
  TGI: 35.9 µM
RPMI-8226 leukemia
  GI50: 14 µM
  TGI: 39 µM
HOP-62 NSCLC
  GI50: 30.8 µM
  TGI: 98.9 µM
NCI-H226 lung
  GI50: 23.2 µM
  TGI: > 100 µM
SK-OV-3 ovarian
  GI50: 29.9 µM
  TGI: 96.7 µM
NCI/ADR-RES ovarian
  GI50: 27.1 µM
  TGI: > 100 µM
NCI-H23 lung
  GI50: 29.4 µM
  TGI: > 100 µM
KM12 colon
  GI50: 27.2 µM
  TGI: > 100 µM
NCI-H460 lung
  GI50: 20.9 µM
  TGI: 78.7 µM
OVCAR-4 ovarian
  GI50: 25.8 µM
  TGI: > 100 µM
SF-268 CNS
  GI50: 28.3 µM
  TGI: > 100 µM
LOX IMVI melanoma
  GI50: 26.5 µM
  TGI: 73.9 µM
SF-539 CNS
  GI50: 19.1 µM
  TGI: 39 µM
SNB-75 CNS
  GI50: 27.7 µM
  TGI: > 100 µM
HOP-92 NSCLC
  GI50: 18 µM
  TGI: 59.4 µM
HCT-116 colon
  GI50: 17.2 µM
  TGI: 46.2 µM
MCF7 breast
  GI50: 22.7 µM
  TGI: > 100 µM
HL-60(TB) leukemia
  GI50: 22.1 µM
  TGI: 66.2 µM
IGROV1 ovarian
  GI50: 26.7 µM
  TGI: > 100 µM
HCC-2998 colon
  GI50: 40.8 µM
  TGI: > 100 µM
SK-MEL-2 melanoma
  GI50: 22.9 µM
  TGI: 55.4 µM
786-0 renal
  GI50: 18.8 µM
  TGI: 40 µM
MOLT-4 leukemia
  GI50: 19.9 µM
  TGI: 94.3 µM
M14 melanoma
  GI50: 28.5 µM
  TGI: 76.5 µM
SF-295 CNS
  GI50: 21.2 µM
  TGI: 74 µM
OVCAR-8 ovarian
  GI50: 29.3 µM
  TGI: > 100 µM
UACC-62 melanoma
  GI50: 19.6 µM
  TGI: 50.1 µM
RXF 393 renal
  GI50: 19.4 µM
  TGI: 82.4 µM
MDA-MB-435
  GI50: 19 µM
  TGI: 55.6 µM
T-47D breast
  GI50: 17.5 µM
  TGI: 76 µM
CAKI-1 renal
  GI50: 14.6 µM
  TGI: 34.7 µM
UO-31 renal
  GI50: 14.1 µM
  TGI: 33.4 µM
OVCAR-3 ovarian
  GI50: 22 µM
  TGI: 75.9 µM
HT29 colon
  GI50: 26.6 µM
  TGI: > 100 µM

## N=C(N)c1ccc(OCCCCCCCCCCOc2ccc(C(=N)N)cc2)cc1
DU-145 prostate
  GI50: 1.61 µM
  TGI: 3.01 µM
ACHN renal
  GI50: 1.54 µM
  TGI: 2.88 µM
NCI/ADR-RES ovarian
  GI50: 17.7 µM
  TGI: 83.7 µM
HCC-2998 colon
  GI50: 1.29 µM
  TGI: 2.79 µM
RXF 393 renal
  GI50: 1.28 µM
  TGI: 2.87 µM

## COc1cc(/C=C2\CN(S(=O)(=O)c3ccc(C)cc3)C/C(=C\c3cc(CN4CCCC4)c(O)c(OC)c3)C2=O)cc(CN2CCCC2)c1O
SN12C renal
  GI50: 1.24 µM
  TGI: 2.8 µM
U251 CNS
  GI50: 0.82 µM
  TGI: 2.34 µM
PC-3 prostate
  GI50: 1.56 µM
  TGI: 3.67 µM
DU-145 prostate
  GI50: 0.926 µM
  TGI: 2.15 µM
MDA-MB-231 breast
  GI50: 1.8 µM
  TGI: 3.53 µM
HS 578T breast
  GI50: 2.73 µM
  TGI: 7.72 µM
SR leukemia
  GI50: 0.412 µM
  TGI: 3.45 µM
HCT-15 colon
  GI50: 1.94 µM
  TGI: 5.83 µM
NCI-H522 lung
  GI50: 0.433 µM
  TGI: 2.3 µM
COLO 205 colon
  GI50: 0.568 µM
  TGI: 2.03 µM
SK-MEL-28 melanoma
  GI50: 1.92 µM
  TGI: 3.51 µM
MALME-3M melanoma
  GI50: 1.71 µM
  TGI: 3.3 µM
OVCAR-5 ovarian
  GI50: 2.27 µM
  TGI: 3.84 µM
CCRF-CEM leukemia
  GI50: 0.0535 µM
  TGI: 3.74 µM
TK-10 renal
  GI50: 1.86 µM
  TGI: 3.49 µM
SK-MEL-5 melanoma
  GI50: 1.61 µM
  TGI: 2.97 µM
ACHN renal
  GI50: 1.38 µM
  TGI: 2.71 µM
RPMI-8226 leukemia
  GI50: 1.14 µM
  TGI: 3.17 µM
NCI-H226 lung
  GI50: 1.63 µM
  TGI: 3.16 µM
NCI/ADR-RES ovarian
  GI50: 12 µM
  TGI: > 100 µM
KM12 colon
  GI50: 1.23 µM
  TGI: 2.56 µM
OVCAR-4 ovarian
  GI50: 1.34 µM
  TGI: 2.69 µM
LOX IMVI melanoma
  GI50: 0.649 µM
  TGI: 2.02 µM
SF-539 CNS
  GI50: 1.6 µM
  TGI: 3.1 µM
SNB-75 CNS
  GI50: 1.1 µM
  TGI: 2.56 µM
HOP-92 NSCLC
  GI50: 1.15 µM
  TGI: 3.83 µM
HCT-116 colon
  GI50: 0.848 µM
  TGI: 2.21 µM
MCF7 breast
  GI50: 0.967 µM
  TGI: 3.93 µM
HCC-2998 colon
  GI50: 1.64 µM
  TGI: 3.08 µM
SK-MEL-2 melanoma
  GI50: 1.87 µM
  TGI: 4.05 µM
MOLT-4 leukemia
  GI50: 0.379 µM
  TGI: 2.92 µM
M14 melanoma
  GI50: 1.55 µM
  TGI: 3.17 µM
SF-295 CNS
  GI50: 2.23 µM
  TGI: 5.07 µM
OVCAR-8 ovarian
  GI50: 0.71 µM
  TGI: 2.92 µM
MDA-MB-435
  GI50: 1.53 µM
  TGI: 2.97 µM
T-47D breast
  GI50: 1.42 µM
  TGI: 3.79 µM
CAKI-1 renal
  GI50: 1.76 µM
  TGI: 3.28 µM
UO-31 renal
  GI50: 1.51 µM
  TGI: 2.96 µM
UACC-257 melanoma
  GI50: 1.53 µM
  TGI: 3.17 µM
OVCAR-3 ovarian
  GI50: 1.07 µM
  TGI: 2.35 µM
